Assays:
[1] = stability in mouse serum; format: in vitro ADME; settings: remaining compound after 4 h
[2] = molecular target: T1, human dopamine D1R (Homo sapiens, UniProt P21728); assay: radioligand binding assay with [3H]SCH23390 at human D1R membranes
T1 construct: purchased Perkin Elmer
Description: Binding assays were carried out by using plasma membranes (12 μg/well) expressing human dopamine D1R (Perkin Elmer). […] After this time, the well content was filtered through a Millipore manifold and membranes were washed four times with assay buffer. The plate was dried and radioactivity was measured in a Microbeta Trilux liquid scintillation reader (Perkin Elmer). Non-specific binding was determined in the presence of 1 μM (+)-butaclamol. Data were normalized to the percentage of specific binding and fitted to a 4-parameter logistic equation using with Prism v2.1 software (GraphPad Inc). For the calculation of the affinity ratio of DA in the presence of the allosteric modulators, data were fitted according to the equations reported by Lazareno and Birdsall.[44]

[3] = molecular target: T2, CYP2C19 (Homo sapiens, UniProt P33261); assay: cytochrome inhibition, fluorescence assay, CYP2C19; format: in vitro ADME
T2 construct: host or cells: insect cell microsomes
T2 sequence (P33261 whole entry): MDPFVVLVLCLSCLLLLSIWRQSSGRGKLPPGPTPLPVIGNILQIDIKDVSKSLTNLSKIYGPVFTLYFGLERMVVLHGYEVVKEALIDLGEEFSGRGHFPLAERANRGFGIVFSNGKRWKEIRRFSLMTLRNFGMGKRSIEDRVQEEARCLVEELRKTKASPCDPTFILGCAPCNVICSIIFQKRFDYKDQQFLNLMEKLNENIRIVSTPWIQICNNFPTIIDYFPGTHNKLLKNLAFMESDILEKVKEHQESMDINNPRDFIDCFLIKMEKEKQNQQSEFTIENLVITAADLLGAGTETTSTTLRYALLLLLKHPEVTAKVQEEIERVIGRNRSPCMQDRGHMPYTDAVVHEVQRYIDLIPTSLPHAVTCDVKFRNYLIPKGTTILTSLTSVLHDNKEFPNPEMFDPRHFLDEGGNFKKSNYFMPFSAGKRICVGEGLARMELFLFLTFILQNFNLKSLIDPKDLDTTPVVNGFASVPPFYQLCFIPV
Description: Cytochrome inhibition. The objective of this study was to screen the potential of test […]
performed using recombinant isoforms CYP1A2, CYP2C9, CYP2C19, CYP2D6, and CYP3A4, and probe substrates with fluorescent detection.
Assays were conducted in a 200 µL volume in 96-well microtiter plates (COSTAR 3915).
Addition of cofactor-buffer mixture (KH2PO4 buffer, 1.3 mM NADP, 3.3 mM MgCl2, 3.3 mM glucose -6- phosphate, and 0.4 U/mL glucose -6- phosphate dehydrogenase), supersomes control, standard inhibitors (furafyline, tranylzypromine, ketoconazole, sulfaphenazole, and quinidine from Sigma Aldrich) and test compound to the plate was carried out by a liquid handling station (Zephyr Caliper). The plate was then pre-incubated at 37 °C for 5 min, and the reaction was initiated by the addition of the pr e - warmed enzyme/substrate (E/S) mix. […]
Fluorescence per well was measured using a fluorescence plate reader (Tecan Infinite M1000 pro) and percentage of inhibition was calculated. hERG ion channel inhibition. […]

[4] = molecular target: T3, human D4R (Homo sapiens, UniProt P21917); assay: PatHunter beta-arrestin assay at human D4R; format: cell-based; settings: 10 μM compound
T3 construct: host or cells: cells supplied with the PatHunter Beta-arrestin eXpress GPCR assay kit
T3 sequence (P21917 1-419): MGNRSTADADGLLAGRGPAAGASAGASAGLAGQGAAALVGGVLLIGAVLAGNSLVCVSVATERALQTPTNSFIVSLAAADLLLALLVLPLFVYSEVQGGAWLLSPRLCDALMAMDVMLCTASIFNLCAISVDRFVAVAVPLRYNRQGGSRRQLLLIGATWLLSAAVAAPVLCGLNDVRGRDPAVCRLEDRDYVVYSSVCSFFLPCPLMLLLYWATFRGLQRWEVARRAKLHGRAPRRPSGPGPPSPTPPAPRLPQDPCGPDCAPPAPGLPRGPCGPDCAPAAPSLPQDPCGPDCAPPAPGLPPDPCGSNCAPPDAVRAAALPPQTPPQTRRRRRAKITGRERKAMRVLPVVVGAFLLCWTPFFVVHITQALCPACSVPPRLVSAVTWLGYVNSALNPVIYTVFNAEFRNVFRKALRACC
Description: Functional studies at both human D3 and D4 receptors were carried out in human D3 and D4 receptors, using a PatHunter Beta-arrestin eXpress GPCR assay kit from DiscoverX. Briefly, cells were plated and maintained for 48 h at 37 °C in a 5% CO2 atmosphere in cell plating reagent provided in the kit. After this time, test compounds were added to the cells and incubated for 30 min at 37 °C. Dopamine was added to the cells and incubated for an additional 90 min at 37 °C. Cells were then treated with the working detection solution provided with the kit for 1 h and beta-arrestin translocation was measured by luminescence detection (integration time = 500 ms) in a Tecan M1000 Genius Pro reader. Data were normalized to dopamine maximum effect and fitted to a 4-parameter logistic equation using Prism v2.1 software (GraphPad Inc).

[5] = parallel artificial membrane permeability assay (PAMPA); format: in vitro ADME; settings: read-out: P
Description: Parallel artificial membrane permeability assay (PAMPA). The assessment of the membrane permeability of selected compounds and reference compounds propranolol and metoprolol was performed in a commercially available 96-well Corning Gentest pre-coated PAMPA plate system (Cultek S.L.U., Spain). Prior to use, the pre-coated PAMPA plate system was warmed to rt for 30 min and 300 μL of 200 μM solution of tested compound in 2% DMSO in PBS were added to the wells in the receiver (donor) plate.
Then, 200 μL of PBS were added to the wells in the filter (acceptor) plate. The filter plate was placed on the receiver plate by slowly lowering the pre-coated PAMPA plate until it sits on the receiver plate. […] The final concentrations of compound in both donor and acceptor wells were analyzed by HPLC-MS using SIM mode, and quantification was estimated by using the peak area integration normalized with an internal standard. Permeability value of the compounds was calculated using the following formula: P (cm/s) = {-ln[1-CA(t)/Ceq]}/[A*(1/VD+1/VA)*t], where A = filter area (0.3 cm2), VD = donor well volume (0.3 mL), VA = acceptor well volume (0.2 mL), t = incubation time (s), CA(t) = compound concentration (μM) in acceptor well at time t, CD(t) = compound concentration (μM) in donor well at time t, and Ceq = […]

T1 sequence (P21728 whole entry): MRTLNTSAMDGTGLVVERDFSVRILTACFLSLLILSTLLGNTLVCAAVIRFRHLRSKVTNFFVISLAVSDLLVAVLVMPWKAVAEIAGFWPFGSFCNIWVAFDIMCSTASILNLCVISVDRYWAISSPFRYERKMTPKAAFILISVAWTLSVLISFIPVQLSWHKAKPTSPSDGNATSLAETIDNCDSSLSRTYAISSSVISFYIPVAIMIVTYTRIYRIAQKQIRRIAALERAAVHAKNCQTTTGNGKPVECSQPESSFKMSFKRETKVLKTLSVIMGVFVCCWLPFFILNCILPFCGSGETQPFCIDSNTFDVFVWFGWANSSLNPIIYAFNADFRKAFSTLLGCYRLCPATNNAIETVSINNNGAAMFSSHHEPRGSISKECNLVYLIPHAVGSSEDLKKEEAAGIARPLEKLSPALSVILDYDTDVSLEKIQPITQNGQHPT

CS(=N)(=O)c1ccc(-c2ccccc2OCF)cc1 (stereo not shown) [Compound 26, 2-(Fluoromethoxy)-4′-(S-methanesulfonimidoyl)-1,1′-biphenyl]
mouse serum stability (%) [1]: 93%
affinity ratio of [3H]SCH-23390 ([2]; in the presence of 4 μM DA): concentration-dependent increase of the affinity ratio values
CYP2C19 (%) ([3]; percentage of inhibition at 10 μM): 37 ± 2%
enhancement of DA Emax at human D4 receptor [4]: subtype selectivity
Papp at 5 h, 200 μM [5]: 24 ×10⁻⁶ cm/s

O=Cc1ccc(-c2ccccc2OCF)cc1 [Compound 3, 2′-(Fluoromethoxy)[1,1′-biphenyl]-4-carbaldehyde]
mouse serum stability (%) [1]: 50%
displacement of the radioligand [3H]SCH-23390 ([2]; at 10 μM): 12%
IC50 [3]: 6.53 ± 1.12 µM
enhancement of DA Emax at human D4 receptor [4]: did not enhance DA Emax
Papp at 5 h, 200 μM [5]: 20 ×10⁻⁶ cm/s

Reference: article PMC9511493, “2-(Fluoromethoxy)-4′-(S-methanesulfonimidoyl)-1,1′-biphenyl (UCM-1306), an Orally Bioavailable Positive Allosteric Modulator of the Human Dopamine D1 Receptor for Parkinson’s Disease” (Journal of Medicinal Chemistry, 2022)
